# ChEMBL document CHEMBL1145871, “Design and pharmacology of peptoids and peptide-peptoid hybrids based on the melanocortin agonists core tetrapeptide sequence” (Bioorg Med Chem Lett, 2003)
# pEC50: −log10 of the molar value. The source made the active and inactive calls. The rule behind the calls is not given here. Where a SMILES comes first, the peptide text is derived from it. [ ]: non-standard residue; d: D form. Gly(N(CH2)2(3-indolyl)) = O=C(O)CNCCc1c[nH]c2ccccc12; Gly(N-CH2CH2-imidazol-4-yl) = O=C(O)CNCCc1c[nH]cn1; N(1-naphthylmethyl)Gly = O=C(O)CNCc1cccc2ccccc12; Gly(N-(CH2)3-guanidino) = N=C(N)NCCCNCC(=O)O; NhArg = N=C(N)NCCCCNCC(=O)O; Nphe = O=C(O)CNCc1ccccc1; Nlys = NCCCCNCC(=O)O
# How the values were obtained:
# Melanocortin receptor 5 = Melanocortin receptor 5 (Mus musculus, UniProt P41149); test: Agonistic activity evaluated at melanocortin 5 receptor (MC5R) of mouse HEK293 cells; type: functional, cell-based
# Melanocortin receptor 4 = Melanocortin receptor 4 (Mus musculus, UniProt P56450); test: Agonistic activity evaluated at melanocortin 4 receptor (MC4R) of mouse HEK293 cells; type: functional, cell-based
# [1] = biological target: Melanocortin receptor 3 (Mus musculus) (UniProt P33033); test: Percent stimulation at melanocortin 3 receptor (MC3R) of mouse HEK293 cells at a concentration of 100 uM; type: cell-based
# [2] = biological target: Melanocyte-stimulating hormone receptor (Mus musculus, UniProt Q01727); test: Agonistic activity evaluated at melanocortin 1 receptor (MC1R) of mouse HEK293 cells; type: functional, cell-based
# Melanocortin receptor 3 = Melanocortin receptor 3 (Mus musculus, UniProt P33033); test: Agonistic activity evaluated at melanocortin 3 receptor (MC3R) of mouse HEK293 cells; type: functional, cell-based
# [3] = biological target: Melanocortin receptor 5 (Mus musculus) (UniProt P41149); test: Percent stimulation at melanocortin 5 receptor (MC5R) of mouse HEK293 cells at a concentration of 100 uM; type: cell-based
# [4] = biological target: Melanocortin receptor 3 (Mus musculus) (UniProt P33033); test: Agonistic activity at melanocortin 3 receptor (MC3R) of mouse HEK293 cells at a concentration of 100 uM; NA=No activity; type: functional, cell-based
# [5] = biological target: Melanocortin receptor 4 (Mus musculus) (UniProt P56450); test: Percent stimulation at melanocortin 4 receptor (MC4R) of mouse HEK293 cells at a concentration of 100 uM; type: cell-based
# [6] = biological target: Melanocortin receptor 4 (Mus musculus) (UniProt P56450); test: Agonistic activity at melanocortin 4 receptor (MC4R) of mouse HEK293 cells at a concentration of 100 uM; NA=No activity; type: functional, cell-based
# Melanocortin receptor 4 (Mus musculus), sequence (P56450 whole entry): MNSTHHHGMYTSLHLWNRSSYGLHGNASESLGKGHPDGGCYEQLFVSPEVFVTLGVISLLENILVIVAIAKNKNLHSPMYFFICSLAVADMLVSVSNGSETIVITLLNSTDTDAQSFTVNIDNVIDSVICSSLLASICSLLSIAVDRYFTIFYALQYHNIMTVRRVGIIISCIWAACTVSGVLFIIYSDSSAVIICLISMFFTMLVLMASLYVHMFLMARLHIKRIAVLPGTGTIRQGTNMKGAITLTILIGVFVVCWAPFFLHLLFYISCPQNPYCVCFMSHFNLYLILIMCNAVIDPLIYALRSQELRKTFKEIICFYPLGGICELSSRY
# Melanocortin receptor 4, sequence (P56450 whole entry): as above
# Melanocortin receptor 5, sequence (P41149 whole entry): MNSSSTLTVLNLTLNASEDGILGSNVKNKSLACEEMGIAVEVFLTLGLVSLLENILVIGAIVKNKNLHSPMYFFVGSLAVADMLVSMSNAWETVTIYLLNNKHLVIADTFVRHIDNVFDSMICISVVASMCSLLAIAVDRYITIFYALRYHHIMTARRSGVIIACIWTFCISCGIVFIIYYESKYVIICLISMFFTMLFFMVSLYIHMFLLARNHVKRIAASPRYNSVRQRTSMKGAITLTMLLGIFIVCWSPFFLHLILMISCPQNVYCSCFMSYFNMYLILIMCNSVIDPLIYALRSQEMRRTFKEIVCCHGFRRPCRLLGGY
# Melanocyte-stimulating hormone receptor, sequence (Q01727 whole entry): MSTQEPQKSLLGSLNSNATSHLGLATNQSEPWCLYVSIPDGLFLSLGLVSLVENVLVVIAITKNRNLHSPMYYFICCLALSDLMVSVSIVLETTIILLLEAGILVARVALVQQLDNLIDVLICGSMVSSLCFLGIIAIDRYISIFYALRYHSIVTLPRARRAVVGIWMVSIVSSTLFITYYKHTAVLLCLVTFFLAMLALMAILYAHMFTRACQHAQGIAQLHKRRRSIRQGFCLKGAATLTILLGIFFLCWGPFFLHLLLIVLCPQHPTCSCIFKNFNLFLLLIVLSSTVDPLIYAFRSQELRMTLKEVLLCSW
# Melanocortin receptor 3 (Mus musculus), sequence (P33033 whole entry): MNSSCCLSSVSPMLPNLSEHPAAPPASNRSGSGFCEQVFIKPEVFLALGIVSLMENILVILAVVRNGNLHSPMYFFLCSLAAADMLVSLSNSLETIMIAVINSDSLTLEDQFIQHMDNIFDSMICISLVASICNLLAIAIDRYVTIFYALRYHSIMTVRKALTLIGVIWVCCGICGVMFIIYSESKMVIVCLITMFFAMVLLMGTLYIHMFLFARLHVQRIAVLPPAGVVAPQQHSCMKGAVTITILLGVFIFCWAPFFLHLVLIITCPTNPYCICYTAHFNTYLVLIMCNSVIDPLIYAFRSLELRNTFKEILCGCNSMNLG
# Melanocortin receptor 5 (Mus musculus), sequence (P41149 whole entry): as the sequence (P41149 whole entry) above
# Melanocortin receptor 3, sequence (P33033 whole entry): as the sequence (P33033 whole entry) above
SMILES,pEC50 (Melanocortin receptor 5),pEC50 (Melanocortin receptor 4),Stimulation [1] [%],pEC50 [2],pEC50 (Melanocortin receptor 3),Stimulation [3] [%],Stimulation [4],Stimulation [5] [%],Stimulation [6]
CC(=O)N(CCc1c[nH]cn1)CC(=O)N(CC(=O)N(CCCCN)CC(=O)N(CCc1c[nH]c2ccccc12)CC(N)=O)Cc1ccccc1 (Ac-[Gly(N-CH2CH2-imidazol-4-yl)][Nphe][Nlys][Gly(N(CH2)2(3-indolyl))]-NH2),5.13,4.57,75,4.57,–,–,–,–,–
CC(=O)N(CCc1cnc[nH]1)CC(=O)N[C@@H](Cc1ccccc1)C(=O)N[C@@H](CCCNC(=N)N)C(=O)N[C@@H](Cc1c[nH]c2ccccc12)C(N)=O (Ac-[Gly(N-CH2CH2-imidazol-4-yl)]FRW-NH2),6.28,6.06,–,5.77,–,–,–,–,–
CC(=O)N[C@@H](Cc1cnc[nH]1)C(=O)N(CC(=O)N[C@@H](CCCNC(=N)N)C(=O)N[C@@H](Cc1c[nH]c2ccccc12)C(N)=O)Cc1ccccc1,–,–,–,4.32,–,–,–,–,–
CC(=O)N(CC(=O)N[C@@H](Cc1ccccc1)C(=O)N[C@@H](CCCN=C(N)N)C(=O)N[C@@H](Cc1c[nH]c2ccccc12)C(N)=O)Cc1ccccc1 (Ac-[Nphe]FRW-NH2),6.44,6.59,25,6.11,–,–,–,–,–
CC(=O)N[C@@H](Cc1c[nH]cn1)C(=O)N[C@@H](Cc1ccccc1)C(=O)N[C@@H](CCCN=C(N)N)C(=O)N(CCc1c[nH]c2ccccc12)CC(N)=O (Ac-HFR[Gly(N(CH2)2(3-indolyl))]-NH2),7.25,6.19,70,6.30,–,–,–,–,–
CC(=O)N(CC(=O)N(CC(=O)N(CCCCN=C(N)N)CC(=O)N(CC(N)=O)Cc1cccc2ccccc12)Cc1ccccc1)Cc1ccccc1 (Ac-[Nphe][Nphe][NhArg][N(1-naphthylmethyl)Gly]-NH2),4.70,–,55,5.12,–,–,–,–,inactive

# The next lines start with the values.
pEC50 (Melanocortin receptor 5),pEC50 (Melanocortin receptor 4),Stimulation [1] [%],pEC50 [2],pEC50 (Melanocortin receptor 3),Stimulation [3] [%],Stimulation [4],Stimulation [5] [%],Stimulation [6],SMILES
6.80,5.96,–,6.77,5.04,–,–,–,–,CC(=O)N[C@@H](Cc1cnc[nH]1)C(=O)N[C@@H](Cc1ccccc1)C(=O)N(CCCNC(=N)N)CC(=O)N[C@@H](Cc1c[nH]c2ccccc12)C(N)=O (Ac-HF[Gly(N-(CH2)3-guanidino)]W-NH2)
–,–,–,–,–,40,inactive,20,–,CC(=O)N[C@@H](Cc1c[nH]cn1)C(=O)N(CC(=O)N[C@@H](CCCN=C(N)N)C(=O)N[C@@H](Cc1c[nH]c2ccccc12)C(N)=O)Cc1ccccc1
–,–,60,–,–,–,–,–,–,CC(=O)N(CCc1c[nH]cn1)CC(=O)N[C@@H](Cc1ccccc1)C(=O)N[C@@H](CCCN=C(N)N)C(=O)N[C@@H](Cc1c[nH]c2ccccc12)C(N)=O (Ac-[Gly(N-CH2CH2-imidazol-4-yl)]FRW-NH2)
5.28,–,55,5.18,–,–,–,65,–,CC(=O)N(CCc1c[nH]cn1)CC(=O)N(CC(=O)N(CCCN=C(N)N)CC(=O)N(CCc1c[nH]c2ccccc12)CC(N)=O)Cc1ccccc1 (Ac-[Gly(N-CH2CH2-imidazol-4-yl)][Nphe][Gly(N-(CH2)3-guanidino)][Gly(N(CH2)2(3-indolyl))]-NH2)
